# Measurements: paper PMC9468011 (Nature Communications, 2022)
# Biological target: T1, G-Flamp1 (cpGFP inserted into mlCNBD of the MlotiK1 channel) (Mesorhizobium japonicum, UniProt Q98GN8, P285N/S308V)
# T1 construct: gene mll3241; GFP D173G plus Citrine/sfGFP mutations) inserted between residues 285 and 286; N-terminal RSET 6xHis tag kept for Kd; tag-free (SUMO cut) for crystal; E. coli; monomer
# T1 sequence (Q98GN8 213-355 P285N/S308V): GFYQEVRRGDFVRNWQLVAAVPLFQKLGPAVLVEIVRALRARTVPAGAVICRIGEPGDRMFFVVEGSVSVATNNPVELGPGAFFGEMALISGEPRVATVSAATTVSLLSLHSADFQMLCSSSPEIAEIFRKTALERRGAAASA
# Assay: fluorescence titration of purified sensor (ex […] nm), sigmoidal fit
# Format: binding
smiles,measurement,value
Nc1nc2c(ncn2[C@@H]2O[C@@H]3COP(=O)(O)O[C@H]3[C@H]2O)c(=O)[nH]1 [cGMP],Kd,30.1 µM
